Data: patent US20240350646A1, “METHODS AND COMPOSITIONS FOR DELIVERY TO AND ACROSS THE BLOOD BRAIN BARRIER” (NUtech Ventures, priority 2021, published 2024)

T1: recombinant human claudin-1 (human, UniProt O95832 1-211, limits assumed)
T1 construct: Expressed and purified as in Vecchio & Stroud 2019, in beta-DDM detergent; also called CLDN1
T1 sequence: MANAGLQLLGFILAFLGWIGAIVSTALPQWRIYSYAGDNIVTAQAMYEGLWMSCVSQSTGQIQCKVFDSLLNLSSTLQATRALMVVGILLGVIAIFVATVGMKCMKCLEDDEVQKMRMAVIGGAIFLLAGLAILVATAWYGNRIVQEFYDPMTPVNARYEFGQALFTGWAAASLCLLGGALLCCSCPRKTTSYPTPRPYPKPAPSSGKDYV


What was measured:
[1] = MST check of non-specific binding to detergent micelles; conditions: NP fixed at 1 μM, β-DDM varied; data not shown
Method: Human claudin-1 was expressed and purified as reported previously (Vecchio & Stroud, 2019, PNAS USA, 116:17817-24). MST measurements were performed using a Monolith instrument (NanoTemper Technologies). For experiments with human claudin-1, the assay buffer contained 10 mM Tris HCl, pH 8.0, 100 mM NaCl, 4% glycerol, and 0.04% n-Dodecyl-β-D-Maltopyranoside (β-DDM). NPs and peptides were labeled with AF647 prior to MST analysis as described above. For the binding experiments, the concentration of human claudin-1 was varied from 2.2-73,500 nM and the AF647-labeled C1C2-NP was fixed at 70 nM, while the AF647 labeled NPs and AF647 labeled C1C2 peptide were fixed at 1 and 0.3 μM, respectively. Binding of the AF647 labeled C1C2-NP to human claudin-3, -4, and -9 were tested using 0.4-14000 nM, 0.8-28000 nM, and 0.6-20000 nM, respectively; with the AF647 labeled C1C2-NP fixed at 70 nM. This assay buffer was similar, except β-DDM was replaced with 0.1% n-Undecyl-β-D-Maltopyranoside (beta-UDM). […] All experiments were conducted at 23° C. using the nano-red channel of the Monolith instrument and the data were analyzed by using either Monolith analysis software or Graph Pad Prism, version 9 (Graph Pad Software, San Diego, California).

[2] = biological target: T1, recombinant human claudin-1; test: microscale thermophoresis, AF647 labeled C1C2-NP fixed at 70 nM, human claudin-1 titrated 2.2-73,500 nM
Method: For the binding experiments, the concentration of human claudin-1 was varied from 2.2-73,500 nM and the AF647-labeled C1C2-NP was fixed at 70 nM, while the AF647 labeled NPs and AF647 labeled C1C2 peptide were fixed at 1 and 0.3 μM, respectively. Binding of the AF647 labeled C1C2-NP to human claudin-3, -4, and -9 were tested using 0.4-14000 nM, 0.8-28000 nM, and 0.6-20000 nM, respectively; with the AF647 labeled C1C2-NP fixed at 70 nM. This assay buffer was similar, except β-DDM was replaced with 0.1% n-Undecyl-β-D-Maltopyranoside (beta-UDM). In order to check non-specific binding of β-DDM micelles to the AF647 labeled C1C2-NP, the concentration of beta-DDM was varied from 0.03-900 μM and the concentration of the AF647-labeled C1C2-NP was fixed at 1 μM. A similar experiment was performed wherein the concentration of beta-UDM was varied from 0.3-10,000 μM and the concentration of AF647-labeled control NP was fixed at 1 μM. […] All experiments were conducted at 23° C. using the nano-red channel of the Monolith instrument and the data were analyzed by using either Monolith analysis software or Graph Pad Prism, version 9 (Graph Pad Software, San Diego, California).
To assess the binding affinity of C1C2-NPs to human claudin-1, C1C2-NPs were labeled with AF647 and binding to recombinant human claudin-1 quantified using MST. […]

| Molecule | Non-specific binding to β-DDM micelle [1] | Kd [2] |
| --- | --- | --- |
| C1C2-NP: PEG diacid coated ultrasmall Gd NP conjugated with C1C2 peptide SSVSQSTGQIQSKVDSLLNLNSTQATR (SEQ ID NO: 6); claudin-1 targeted (Ac-SSVSQSTGQIQSKVDSLLNLNSTQATR-NH2; also: conjugated to PEG diacid coated ultrasmall Gd nanoparticle) | No significant binding | – |
| Ac-SSVSQSTGQIQSKVDSLLNLNSTQATR-NH2 (not fully specified; also: conjugated by EDC-NHS chemistry to PEG diacid on Gd oxide nanoparticle surface (19 peptides per 3.5 nm particle), The protein part is the C1C2 peptide; the core is not a protein; also called C1C2-NPs; C1C2 NPs) [C1C2-NP (C1C2 peptide conjugated to PEG diacid coated ultrasmall Gd nanoparticles)] | – | 21 µM |
